The test system of data set [1] is laboratory viral strain NL4.3. The data set is described as follows: Anti-viral assay in vitro (MTT assay on infected MT-4 cells). As to conditions: Human immunodeficiency virus 1, MT4, 144 h, infected MT-4 cells incubated six days, average of at least two determinations. Format: cell-based, HIV-1. The text has this:
(§1) Anti-viral and cytotoxicity assays in vitro
(§2) We also use some WT clinical strains.
Background: Tetrazolium dyes change colour on reduction, which living cells bring about.

The subject of a further data set is MT-4. Briefly: Cytotoxicity assay in vitro (MTT assay, virus omitted). As to conditions: human, 6 days. It counts as cell-based.
Description: as §1, §2

For the next data set, the target named is HIV protease (Human immunodeficiency virus type 1 group M subtype B, UniProt P04585). The data set is described as follows: Enzymatic (fluorometric FRET) assay for determining the inhibition constant (Ki). Format: biochemical. As to conditions: Ki, EDANS/DABCYL substrate, equation of Henderson. The text has this:
Enzymatic assay for determining the inhibition constant (Ki) of synthetic compounds targeting the HIV protease
This is a fluorometric assay based on the cleavage by protease of a substrate carrying a donor group (EDANS) and an acceptor group (DABCYL) on each side of the cleavage site, interacting together through fluorescence resonance energy transfer (FRET) as described by Matayoshi et al. (Science 247:[…], 1990).
After calculation of Vo and Vi, the inhibition constant (Ki) of the compound is determined using the equation of Henderson: (Vo)/(Vi) = 1 + ([I])/(Kiapp) Where Ki = (Kiapp)/((1 + [S])/(Km)) [formula] where Vo = the enzyme's initial velocity Vi = the enzyme velocity in the presence of the inhibitory compound, [I] = inhibitor concentration, [S] = substrate concentration, Km = Michaelis-Menten constant and Kiapp = apparent Ki
Graphs are traced and the Ki determined using GraphPad Prism software v. 3.0.

Turning to `CC(C)CCN([C@H](CO)CCCCNC(=O)N(Cc1ccncc1)Cc1ccc2c(c1)OCO2)S(=O)(=O)c1ccc(N)cc1` [Example 95, (2S) 2-N-(4-aminobenzenesulfonyl)-2-N-(3-methylbutyl)-6-N-[N'-(4-picolyl)-N'-piperonylaminocarbonyl]-2,6-diaminohexanol], the response in data set [1] was half-maximal at 550 nM (EC50). The CCIC50 in the data set with MT-4 came to 28.8 µM. Also, affinity on HIV protease was put at a Ki of 7.1 nM.

With `CC(C)CCN([C@H](CO)CCCCNC(=O)N(Cc1ccc(F)cc1)Cc1ccc2c(c1)OCO2)S(=O)(=O)c1ccc(N)cc1` [Example 102, (2S) 2-N-(4-aminobenzenesulfonyl)-2-N-(3-methylbutyl)-6-N-[N'-(4-fluorobenzyl)-N'-piperonylaminocarbonyl]-2,6-diaminohexanol], in data set [1], the EC50 – broadly, the concentration that produces a half-maximal response – amounted to 1200 nM. This molecule also had a CCIC50 in the data set with MT-4 of 24.4 µM. Further, affinity at HIV protease was put at a Ki of 4.9 nM.

Consider `COc1cc(CN(Cc2ccc3c(c2)OCO3)C(=S)NCCCC[C@@H](CO)N(CCC(C)C)S(=O)(=O)c2ccc(N)cc2)cc(OC)c1OC` [Example 107, (2S) 2-N-(4-aminobenzenesulfonyl)-2-N-(3-methylbutyl)-6-N-[N'-(3,4,5-trimethoxybenzyl)-N'-piperonylaminothiocarbonyl]-2,6-diaminohexanol], for which a half-maximal effect in data set [1] (EC50) was put at 680 nM. Moreover, the CCIC50 in the data set with MT-4 stood at 10.7 µM. In addition, the Ki (commonly a dissociation constant, usually derived from enzyme kinetics or from competition with a known ligand) on HIV protease was 4.9 nM.

(Values after patent EP1480941B1, “UREA DERIVATIVES AS HIV ASPARTYL PROTEASE INHIBITORS” (priority 2002, dated 2003).)
